Laboratory results published in the Kinase Knowledgebase extract (Sharma et al. 2016).
pIC50, pKi: −log10 of the molar value.

Assays:
[1] = biological target: EGFR (human) (UniProt P00533); settings: A431
[2] = biological target: EGFR (mouse) (UniProt P00533); settings: balb/mk cells
[3] = biological target: EGFR (human) (UniProt P00533); settings: a431
[4] = biological target: EGFR (human) (UniProt P00533); settings: for inhibition: a431, concentration not given here
[5] = biological target: EGFR (human) (UniProt P00533); settings: A431; remark: listed apart in the source
[6] = biological target: EGFR (UniProt P00533)
Sequence of EGFR (P00533 whole entry, looked up): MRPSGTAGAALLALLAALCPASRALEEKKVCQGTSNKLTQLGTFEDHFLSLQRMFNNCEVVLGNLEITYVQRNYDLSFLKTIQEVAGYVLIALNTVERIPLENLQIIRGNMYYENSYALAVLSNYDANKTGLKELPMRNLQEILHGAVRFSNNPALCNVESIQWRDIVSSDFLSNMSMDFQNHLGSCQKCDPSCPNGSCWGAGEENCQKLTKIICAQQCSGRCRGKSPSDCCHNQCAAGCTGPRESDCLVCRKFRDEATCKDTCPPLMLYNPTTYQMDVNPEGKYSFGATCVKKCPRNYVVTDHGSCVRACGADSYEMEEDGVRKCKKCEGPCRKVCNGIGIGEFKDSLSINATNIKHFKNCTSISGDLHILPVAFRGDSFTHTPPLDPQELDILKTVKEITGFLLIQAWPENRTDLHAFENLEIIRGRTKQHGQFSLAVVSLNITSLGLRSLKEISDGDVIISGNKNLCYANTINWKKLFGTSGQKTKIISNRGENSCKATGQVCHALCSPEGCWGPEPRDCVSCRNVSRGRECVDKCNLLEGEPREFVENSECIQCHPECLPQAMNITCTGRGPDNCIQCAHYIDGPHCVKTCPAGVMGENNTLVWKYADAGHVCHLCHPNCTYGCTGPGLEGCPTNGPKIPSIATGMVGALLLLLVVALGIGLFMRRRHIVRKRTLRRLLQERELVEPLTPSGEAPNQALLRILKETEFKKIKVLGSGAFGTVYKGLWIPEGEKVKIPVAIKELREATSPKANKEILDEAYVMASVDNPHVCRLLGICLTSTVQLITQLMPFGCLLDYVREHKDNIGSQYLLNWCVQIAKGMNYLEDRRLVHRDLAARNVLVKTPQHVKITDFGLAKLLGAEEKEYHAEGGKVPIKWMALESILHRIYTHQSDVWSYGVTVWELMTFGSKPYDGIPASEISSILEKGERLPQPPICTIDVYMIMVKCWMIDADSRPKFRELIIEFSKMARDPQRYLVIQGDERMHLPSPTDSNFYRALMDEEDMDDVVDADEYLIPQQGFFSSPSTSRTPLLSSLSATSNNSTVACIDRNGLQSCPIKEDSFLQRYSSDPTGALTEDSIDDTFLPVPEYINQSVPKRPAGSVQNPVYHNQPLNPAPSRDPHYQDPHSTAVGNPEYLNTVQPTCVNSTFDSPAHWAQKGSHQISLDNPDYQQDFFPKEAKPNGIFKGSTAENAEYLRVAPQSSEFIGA

[7] = biological target: EGFR (UniProt P00533); remark: listed apart in the source
[8] = biological target: EGFR (UniProt P00533); remark: listed apart in the source

Sequence of EGFR (human) (P00533 whole entry, looked up): as above

Molecule C=C(C)CN1C(=O)CSC1=NN=C1SCC(=O)N1C has a pIC50 [1] of under 4.30, a pIC50 [2] of under 4.30 and a pIC50 [3] of under 4.30. For the same molecule, the inhibition [4] was 0%.
C=CCN1C(=O)C(C)SC1=NN=C1SCC(=O)N1C (centres undefined) showed a pIC50 [1] of under 4.30, a pIC50 [2] of under 4.30 and a pIC50 [3] of under 4.30. For the same molecule, the inhibition [4] was 0%.
Molecule C=C(C)CN1C(=O)C(=C)SC1=NN=C1SCC(=O)N1C has a pIC50 [1] of 6.00, a pIC50 [5] of 5.30 and a pIC50 [2] of 6.00. It also gave a pIC50 [3] of 5.81 and a pIC50 ([4]; a431) of 4.60 to 4.90.
Work on C=C(C)CN1C(=O)C(CN(C)C)SC1=NN=C1SCC(=O)N1C (centres undefined) yielded a pIC50 [1] of 5.70, a pIC50 [2] of 6.01 and a pIC50 [3] of 5.79.
With CCOc1cc(/C=C(/C#N)C(N)=O)cc(Cc2ccccc2)c1O the pIC50 [1] was 5.05, the pIC50 [6] was 6.00 and the pKi [6] was 5.68.
For C=C(C)CN1C(=O)C(OS(=O)(=O)O)SC1=NN=C1SCC(=O)N1C (centres undefined), the pIC50 [1] was 4.00, the pIC50 [2] was under 4.30 and the pIC50 [3] was under 4.30. It also gave an inhibition [4] of 0%.
Molecule C=C(C)CN1C(=O)C(C)SC1=NN=C1SCC(=O)N1C (centres undefined) has a pIC50 [1] of under 4.30, a pIC50 [2] of under 4.30 and a pIC50 [3] of under 4.30. For the same molecule, the inhibition [4] was 0%.
For C=CCN1C(=O)C(CC(=O)O)SC1=NN=C1SCC(=O)N1C (centres undefined), the pIC50 [1] was under 4.00, the pIC50 [2] was under 4.30 and the pIC50 [3] was under 4.30. The inhibition [4] was 0%.
O=CN/C=C/c1cc(O)ccc1O was tested, and the pIC50 [1] was 4.90 and the pKi [7] was 5.22.
In the case of CC(=S)N/C(C#N)=C/c1ccc(O)c(O)c1, the pIC50 [8] was 5.62 and the pKi [8] was 6.07.
In the case of C=C(C)CN1C(=O)C(CO)SC1=NN=C1SCC(=O)N1C (centres undefined), the pIC50 [1] was under 4.30, the pIC50 [2] was under 4.30 and the pIC50 [3] was 4.39. It also gave an inhibition [4] of 0%.
With N#CC(C#N)=Cc1cc(O)cc(O)c1 the pIC50 [1] was 4.38, the pIC50 [8] was 4.46 and the pKi [8] was 4.96.
C=CCN1C(=O)C(=C)SC1=NN=C1SCC(=O)N1C gave a pIC50 [1] of 5.22, a pIC50 [2] of 5.99 and a pIC50 [3] of 5.82.
C=C(C)CN1C(=O)C(O)SC1=NN=C1SCC(=O)N1C (centres undefined) gave a pIC50 [1] of under 4.00, a pIC50 [2] of under 4.30 and a pIC50 [3] of under 4.30. It also gave an inhibition [4] of 0%.
